Test results taken from EP0642504B1 (priority 1991, dated 1993).
Marks after values point to notes of the source that are not given here.

How the values were obtained:
mouse [1] = assay: Ring test for cataleptic effects; type: in vivo; conditions: 5-min test period, vehicle 7.7 ± 4.4
Method: The lack of CNS activity for the compounds described herein may be seen from the data shown in Table V. This was measured by the so-called "ring test" [Pertwee, R.G., et al., J. Pharmacol., 46, 753 (1972)] in which the cataleptic effects of cannabinoids can be quantitated. The compounds produced little or no response when compared with the parent drug.
The cataleptic response was measured using the ring test. Mice were placed on a horizontal wire ring 5.5 cm in diameter, which was attached to a 16 cm vertical rod. The hind paws and fore paws were placed at opposite sides of the ring. It is important that the ambient temperature is maintained at 30°C and that the environment be free of auditory stimuli and bright lights. The criteria for immobility are detailed by Pertwee. The response is calculated as the fraction of time the mouse is immobile over a 5-min test period. Measurements were always done between 2 and 4 p.m. and the animals were used only once.

mouse [2] = assay: Mouse hot plate test (55°C) for antinociception; type: in vivo
Method: In the hot plate test for analgesia an aluminum surface was maintained at 55 ± 1°C by circulating water through passages in the metal. A clear plastic cylinder 18 cm in diameter and 26 cm high was placed on the surface to prevent escape. The end point was taken when the mouse either performed a hind paw lick or jumped off the surface; in no case were the animals kept for more than 30 secs on the plate. Mice were never used more than one time; control values were always measured at 11 a.m. and test values at 2 p.m. The drugs were administered orally 90 min before the hot plate test. The percent change in response time (latency) was calculated by comparing the mean of the control values with the mean of the test values and statistical signficance determined by a paired t-test analysis using software (Statview, 512) from Brainpower, Inc., Calabasas, Ca.

[3] = tested on: picrotoxin induced lethality; assay: Protection against picrotoxin induced lethality; type: in vivo, Balb/c male mice; conditions: drug 10 mg/kg, 120 min before picrotoxin (8 mg/kg) s.c.; no drug 0/17
Excerpt: (§1) The present compounds are active in several tests generally used to indicate neuroprotection.

[4] = tested on: forebrain ischemia (unilateral occlusion); assay: Forebrain ischemia (unilateral occlusion); type: in vivo; conditions: mongolian gerbils
Excerpt: as §1

peritoneal leukocytes = assay: Leukocyte adhesion assay, peritoneal cells collected after oral dosing; type: in vivo, CD-1 mice
Method: Leukocytes are thought to be major contributors to the inflammatory response and their ability in this regard is reflected by their adhesiveness to a variety of substrates [Audette, C.A., et al., Life Sci., 47, 753 (1990)].
The details of the leukocytes adhesion assay have been previously reported [Audette et al., ibid.]. In brief, peritoneal cells from femals CD-1 mice (20-25 g) were collected at 90 min following oral administration of the drug or vehicle (50 µl peanut oil). Cells from each treatment group (N=3) were pooled and equal numbers aliquoted into six culture dish wells (1.9 cm^2 area). After incubation for 18-20 hours, non-adhering cells were removed and the remaining cell monolayer quantitated by DNA measurement.

PAF-Induced Paw Edema = assay: PAF-induced paw edema (water displacement); type: in vivo, CD-1 female mice; conditions: for percent inhibition of paw edema: oral, 15 min after PAF (1.0 µg s.c.), vs vehicle treated controls
Method: A second model, in which edema is induced by platelet activating factor (PAF), was used to evaluate activity.
(§2) The conditions were based on those reported previously [Calhoun et al., ibid.]. […] PAF (1.0 µg) or arachidonic acid (1.0 mg) dissolved in 50 µl of 5% ethanol in saline, were injected s.c. into the plantar surface of the right hind paw of CD-1 female mice (20-25 g) obtained from Charles River Labs. The mice were under ether anesthesia during this procedure. The volume of the right foot was measured to the level of the lateral malleous by water displacement before treatment and 15 min after PAF injection or 30 min after archidonate injection. The change in paw volume was calculated for each mouse and the significance for each group was determined by a paired t test analysis.

[5] = tested on: N-methyl-D-aspartate (NMDA) induced lethality; assay: Protection against NMDA induced lethality; type: in vivo, Balb/c male mice; conditions: drug 10 mg/kg, 90 min before NMDA (125 mg/kg) s.c.; no drug 0/20
Excerpt: as §1

intraocular pressure = assay: Reduction of intraocular pressure (anti-glaucoma activity); type: in vivo, rabbits; conditions: 50 µl drop of a 1% emulsion into the rabbit eye
Method: Reduction of intraocular pressure in rabbits was determined by the addition of a 50 µl drop of a 1% emulsion of the cannabinoid into the rabbit eye. This test is a measure of anti-glaucomatic activity.

[6] = tested on: Arachidonic Acid-Induced Paw Edema; assay: Arachidonic acid-induced paw edema (water displacement); type: in vivo, CD-1 female mice; conditions: for percent inhibition of paw edema: oral, 30 min after arachidonic acid (1.0 mg s.c.), vs vehicle treated controls
Method: The induction of paw edema in rodents by injection of arachidonic acid has been used as an experimental model for inflammation [Calhoun, W., et al., Agents and Actions, 21, 306 (1987)]. Prior administration of non-steroidal anti-inflammatory drugs (NSAIDs) in many cases leads to a dose related inhibition of the edematous response which may be considered a predictor of clinical efficacy.
as §2

[7] = dose 0.25 mg/kg orally 90 min before the hot plate test
[8] = dose 0.50 mg/kg orally 90 min before the hot plate test
[9] = dose 1.0 mg/kg orally 90 min before the hot plate test
[10] = dose 0.05 mg/kg oral, cells collected 90 min after administration
[11] = dose 0.05 mg/kg oral, cells collected 90 min after administration, 18-20 hours incubation
[12] = dose 0.10 mg/kg oral, cells collected 90 min after administration
[13] = dose 0.10 mg/kg oral, cells collected 90 min after administration, 18-20 hours incubation
[14] = dose 0.50 mg/kg oral, cells collected 90 min after administration
[15] = dose 0.50 mg/kg oral, cells collected 90 min after administration, 18-20 hours incubation
[16] = dose 1.00 mg/kg oral, cells collected 90 min after administration
[17] = dose 1.00 mg/kg oral, cells collected 90 min after administration, 18-20 hours incubation

Row | Compound | percent change in latency (mouse [2]; [7]) | percent change in latency (mouse [2]; [8]) | percent change in latency (mouse [2]; [9]) | Survival rate (number of survivors out of total number of animals used) [3] | protection against forebrain ischemia [4] | adhering cells, percent of control (peritoneal leukocytes; [10]) | number of adhering cells x 10^-6 ± S.D. (peritoneal leukocytes; [11]) | adhering cells, percent of control (peritoneal leukocytes; [12]) | number of adhering cells x 10^-6 ± S.D. (peritoneal leukocytes; [13]) | adhering cells, percent of control (peritoneal leukocytes; [14]) | number of adhering cells x 10^-6 ± S.D. (peritoneal leukocytes; [15]) | adhering cells, percent of control (peritoneal leukocytes; [16]) | number of adhering cells x 10^-6 ± S.D. (peritoneal leukocytes; [17]) | percent inhibition of paw edema (PAF-Induced Paw Edema; dose 0.5 mg/kg) | Survival rate (number of survivors out of total number of animals used) [5] | further results
1 | CCCCCc1cc(O)c2c(c1)OC(C)(C)[C@@H]1CCC(C)=C[C@@H]21 [Δ^1-THC, reference compound] | – | – | – | – | – | – | – | – | – | – | – | – | – | – | – | Response ± SD (means of the fraction of time the mice remained immobile) (mouse [1]; dose 40 mg/kg): 48.9 ± 16
2 | CCCCCCC(C)(C)c1cc(O)c2c(c1)OC(C)(C)[C@H]1CC=C(CO)C[C@H]21 [HU-211, reference compound] | 30.0(5)* percent | 72.5(5)*** percent | -10.2(5) percent | 6/10 | protect against forebrain ischemia | 124% of control | 1.09±0.08 x 10^-6 | 50% of control | 0.44±0.03 x 10^-6 | 73% of control | 0.64±0.06 x 10^-6 | 67% of control | 0.59±0.06 x 10^-6 | 37.5% | 11/16 | percent inhibition of paw edema (PAF-Induced Paw Edema; dose 1.0 mg/kg): 21.9%
3 | THC-7-oic Acid [reference compound] | – | – | – | – | – | – | – | – | – | – | – | – | – | – | – | number of adhering cells x 10^-6 ± S.D. (peritoneal leukocytes; dose 20 mg/kg oral, cells collected 90 min after administration, own control 0.81±0.03): 0.67±0.02 x 10^-6; adhering cells, percent of control (peritoneal leukocytes; dose 20 mg/kg oral, own control 0.81±0.03): 90.6% of control; number of adhering cells x 10^-6 ± S.D. (peritoneal leukocytes; dose 40 mg/kg oral, cells collected 90 min after administration, own control 0.81±0.03): 0.55±0.22 x 10^-6; adhering cells, percent of control (peritoneal leukocytes; dose 40 mg/kg oral, own control 0.81±0.03): 67.9% of control
4 | CCCCCc1cc(O)c2c(c1)OC(C)(C)[C@@H]1CC=C(C(=O)O)C[C@@H]21 [Δ^6-THC-7-oic acid, reference compound] | – | – | – | – | – | – | – | – | – | – | – | – | – | – | – | percent inhibition of paw edema (PAF-Induced Paw Edema; dose 40.0 mg/kg): 50.2%
5 | CCCCCCC(C)(C)c1cc(O)c2c(c1)OC(C)(C)[C@H]1CC=C(C(=O)O)C[C@H]21 [HU-235] | 61.5(17)** percent | 51.7(8)* percent | 14.7(5) percent | 8/12 | protect against forebrain ischemia | 102% of control | 1.29±0.05 x 10^-6 | 110% of control | 1.38±0.17 x 10^-6 | 116% of control | 1.46±0.05 x 10^-6 | 56% of control | 0.70±0.12 x 10^-6 | 60.1* percent | 7/10 | percent change in latency (mouse [2]; dose 0.025 mg/kg orally 90 min before the hot plate test): 10.3(5) percent; percent change in latency (mouse [2]; dose 0.050 mg/kg orally 90 min before the hot plate test): 61.7(5)* percent; percent change in latency (mouse [2]; dose 0.10 mg/kg orally 90 min before the hot plate test): 49.5(20)* percent; adhering cells, percent of control (peritoneal leukocytes; dose 0.01 mg/kg oral, cells collected 90 min after administration): 106% of control; number of adhering cells x 10^-6 ± S.D. (peritoneal leukocytes; dose 0.01 mg/kg oral, cells collected 90 min after administration, 18-20 hours incubation): 1.34±0.14 x 10^-6; Reduction of intraocular pressure (intraocular pressure): Significant reduction; percent inhibition of paw edema (PAF-Induced Paw Edema; dose 0.05 mg/kg): 44.4 (N.S.) percent; percent inhibition of paw edema (PAF-Induced Paw Edema; dose 0.10 mg/kg): 38.7* percent; percent inhibition of paw edema (PAF-Induced Paw Edema; dose 0.25 mg/kg): 31.9* percent; activity against PAF-induced edema (result in words) (PAF-Induced Paw Edema; summary of Table II): active; reduction of paw edema (result in words) ([6]; arachidonic acid model, summary of Table 1): effective in reducing paw edema; percent inhibition of paw edema ([6]; dose 0.050 mg.kg): 42.1 (N.S.) percent; percent inhibition of paw edema ([6]; dose 0.100 mg.kg): 65.8* percent; percent inhibition of paw edema ([6]; dose 0.250 mg.kg): 52.6* percent; percent inhibition of paw edema ([6]; dose 0.55 mg.kg): 47.4%; Response ± SD (means of the fraction of time the mice remained immobile) (mouse [1]; dose 0.25 mg/kg): 12.3 ± 10.3; Response ± SD (means of the fraction of time the mice remained immobile) (mouse [1]; dose 0.5 mg/kg): 13.8 ± 7.9; Response ± SD (means of the fraction of time the mice remained immobile) (mouse [1]; dose 1.0 mg/kg): 10.4 ± 10.6; Response ± SD (means of the fraction of time the mice remained immobile) (mouse [1]; dose 4.0 mg/kg): 8.7 ± 5.6
